Assay results as given in patent US11701372B2, “Inhalation formulations of 1'-cyano substituted carba-nucleoside analogs” (priority 2020, dated 2023).
Like-named read-outs stand apart in the source and are kept apart here. Marks after values point to notes of the source that are not given here.

Columns and labels:
[1] = format: physicochemical; settings: for % assay/degs / Total degs / pH: T = 0
Protocol: For each condition, samples were staged at ambient and refrigerated conditions. Samples were analyzed for % assay/degs, appearance, reconstitution time, pH, and compared to T=0. The structures of the key impurities/metabolites are shown below.

in vivo [2] = settings: both, monkey, inhaled or intranasal
Protocol: The average deposited dose was calculated at 0.168 mg/kg and 0.536 mg/kg, respectively. Plasma, peripheral blood mononuclear cells (PBMCs), trachea, bronchi, lung lobe, liver, kidney, nasal mucosa and nasopharyngeal mucosa samples were collected in this study.

in vivo [3] = experiment: in vivo; parameters: species or system African Green Monkeys; settings: monkey, iv, 10 mg/kg
[4] = format: physicochemical
Protocol: Samples for freeze-thaw cycling were also prepared and tested. For each condition, the physical stability was measured as % LS (label strength) and compared to % LS at T=0. […] The 7.5% SBECD formulation is also stable to freeze/thaw cycling (three cycles performed).

[5] = 7.5% SBECD w/v, 2-8° C., 24 h timepoint
[6] = 7.5% SBECD w/v, RT, 24 h timepoint

CCC(CC)COC(=O)[C@H](C)N[P@](=O)(OC[C@H]1O[C@@](C#N)(c2ccc3c(N)ncnn23)[C@H](O)[C@@H]1O)Oc1ccccc1 [Formula Ia, (S)-2-ethylbutyl 2-(((S)-(((2R,3S,4R,5R)-5-(4-aminopyrrolo[2,1-f][1,2,4]triazin-7-yl)-5-cyano-3,4-dihydroxytetrahydrofuran-2-yl)methoxy)(phenoxy)phosphoryl)amino)propanoate]
Total degs, difference from T = 0 ([1]; pH 3.5, Ambient, 8 h): 0.0% | pH, difference from T = 0 ([1]; pH 3.5, Ambient, 8 h): 0.0 | % assay/degs, difference from T = 0 ([1]; pH 3.5, Ambient, 24 h): 0.6% | Total degs, difference from T = 0 ([1]; pH 3.5, Ambient, 24 h): 0.0% | pH, difference from T = 0 ([1]; pH 3.5, Ambient, 24 h): 0.0 | % assay/degs, difference from T = 0 ([1]; pH 3.5, Ambient, 48 h): 0.3% | Total degs, difference from T = 0 ([1]; pH 3.5, Ambient, 48 h): 0.1% | pH, difference from T = 0 ([1]; pH 3.5, Ambient, 48 h): 0.0 | % assay/degs, difference from T = 0 ([1]; pH 3.5, Ambient, 72 h): 0.2% | Total degs, difference from T = 0 ([1]; pH 3.5, Ambient, 72 h): 0.1% | pH, difference from T = 0 ([1]; pH 3.5, Ambient, 72 h): −0.1 | % assay/degs, difference from T = 0 ([1]; pH 3.5, Ambient, 96 h): 0.0% | Total degs, difference from T = 0 ([1]; pH 3.5, Ambient, 96 h): 0.1% | pH, difference from T = 0 ([1]; pH 3.5, Ambient, 96 h): 0.0 | % assay/degs, difference from T = 0 ([1]; pH 3.5, Ambient, 168 h): 0.2% | Total degs, difference from T = 0 ([1]; pH 3.5, Ambient, 168 h): 0.2% | pH, difference from T = 0 ([1]; pH 3.5, Ambient, 168 h): 0.0 | % assay/degs ([1]; pH 3.5): 99.1% | Total degs ([1]; pH 3.5): 0.1% | pH ([1]; pH 3.5): 3.5 | % assay/degs, difference from T = 0 ([1]; pH 3.8, 2-8° C., 7.2 h): −0.2% | Total degs, difference from T = 0 ([1]; pH 3.8, 2-8° C., 7.2 h): 0.0% | pH, difference from T = 0 ([1]; pH 3.8, 2-8° C., 7.2 h): −0.1 | % assay/degs, difference from T = 0 ([1]; pH 3.8, 2-8° C., 24 h): 0.3% | Total degs, difference from T = 0 ([1]; pH 3.8, 2-8° C., 24 h): 0.0% | pH, difference from T = 0 ([1]; pH 3.8, 2-8° C., 24 h): 0.0 | % assay/degs, difference from T = 0 ([1]; pH 3.8, 2-8° C., 96 h): 0.1% | Total degs, difference from T = 0 ([1]; pH 3.8, 2-8° C., 96 h): 0.0% | pH, difference from T = 0 ([1]; pH 3.8, 2-8° C., 96 h): −0.1 | % assay/degs, difference from T = 0 ([1]; pH 3.8, 2-8° C., 168 h): 0.1% | Total degs, difference from T = 0 ([1]; pH 3.8, 2-8° C., 168 h): 0.0% | pH, difference from T = 0 ([1]; pH 3.8, 2-8° C., 168 h): −0.1 | % assay/degs, difference from T = 0 ([1]; pH 3.8, Ambient, 7.2 h): 0.0% | Total degs, difference from T = 0 ([1]; pH 3.8, Ambient, 7.2 h): 0.0% | pH, difference from T = 0 ([1]; pH 3.8, Ambient, 7.2 h): 0.0 | % assay/degs, difference from T = 0 ([1]; pH 3.8, Ambient, 24 h): 0.4% | Total degs, difference from T = 0 ([1]; pH 3.8, Ambient, 24 h): 0.0% | pH, difference from T = 0 ([1]; pH 3.8, Ambient, 24 h): 0.0 | % assay/degs, difference from T = 0 ([1]; pH 3.8, Ambient, 96 h): 0.0% | Total degs, difference from T = 0 ([1]; pH 3.8, Ambient, 96 h): 0.1% | pH, difference from T = 0 ([1]; pH 3.8, Ambient, 96 h): −0.1 | % assay/degs, difference from T = 0 ([1]; pH 3.8, Ambient, 168 h): 0.0% | Total degs, difference from T = 0 ([1]; pH 3.8, Ambient, 168 h): 0.1% | pH, difference from T = 0 ([1]; pH 3.8, Ambient, 168 h): −0.1 | % assay/degs ([1]; pH 3.8): 98.7% | Total degs ([1]; pH 3.8): 0.1% | pH ([1]; pH 3.8): 3.8 | % assay/degs, difference from T = 0 ([1]; pH 4.0, 2-8° C., 7.2 h): 0.0% | Total degs, difference from T = 0 ([1]; pH 4.0, 2-8° C., 7.2 h): 0.0% | pH, difference from T = 0 ([1]; pH 4.0, 2-8° C., 7.2 h): 0.0 | % assay/degs, difference from T = 0 ([1]; pH 4.0, 2-8° C., 24 h): 0.3% | Total degs, difference from T = 0 ([1]; pH 4.0, 2-8° C., 24 h): 0.0% | pH, difference from T = 0 ([1]; pH 4.0, 2-8° C., 24 h): 0.0 | % assay/degs, difference from T = 0 ([1]; pH 4.0, 2-8° C., 96 h): 0.2% | Total degs, difference from T = 0 ([1]; pH 4.0, 2-8° C., 96 h): 0.0% | pH, difference from T = 0 ([1]; pH 4.0, 2-8° C., 96 h): 0.0 | % assay/degs, difference from T = 0 ([1]; pH 4.0, 2-8° C., 168 h): 0.6% | Total degs, difference from T = 0 ([1]; pH 4.0, 2-8° C., 168 h): 0.0% | pH, difference from T = 0 ([1]; pH 4.0, 2-8° C., 168 h): −0.1 | % assay/degs, difference from T = 0 ([1]; pH 4.0, Ambient, 7.2 h): 0.3% | Total degs, difference from T = 0 ([1]; pH 4.0, Ambient, 7.2 h): 0.0% | pH, difference from T = 0 ([1]; pH 4.0, Ambient, 7.2 h): 0.0 | % assay/degs, difference from T = 0 ([1]; pH 4.0, Ambient, 24 h): 0.3% | Total degs, difference from T = 0 ([1]; pH 4.0, Ambient, 24 h): 0.0% | pH, difference from T = 0 ([1]; pH 4.0, Ambient, 24 h): 0.0 | % assay/degs, difference from T = 0 ([1]; pH 4.0, Ambient, 96 h): 0.0% | Total degs, difference from T = 0 ([1]; pH 4.0, Ambient, 96 h): 0.1% | pH, difference from T = 0 ([1]; pH 4.0, Ambient, 96 h): 0.0 | % assay/degs, difference from T = 0 ([1]; pH 4.0, Ambient, 168 h): −0.2% | Total degs, difference from T = 0 ([1]; pH 4.0, Ambient, 168 h): 0.1% | pH, difference from T = 0 ([1]; pH 4.0, Ambient, 168 h): −0.1 | % assay/degs ([1]; pH 4.0): 98.6% | Total degs ([1]; pH 4.0): 0.1% | pH ([1]; pH 4.0): 4.0 | AUC(0-t) (in vivo [2]; 0.168 mg/kg): 0.023 ± 0.008 µM·h | Cmax (in vivo [2]; 0.168 mg/kg): 39 ± 14 nM | Tmax (in vivo [2]; 0.168 mg/kg): 0.52 h | AUC(0-t) (in vivo [2]; 0.536 mg/kg): 0.146 ± 0.045 µM·h | Cmax (in vivo [2]; 0.536 mg/kg): 101 ± 19 nM | Tmax (in vivo [2]; 0.536 mg/kg): 1.53 h | AUC(0-t) (in vivo [3]): 7.26 µM·h | % LS (Initial) ([4]; 5% SBECD w/v): 101 % LS | % LS After Stress, Hold ([4]; 5% SBECD w/v, 2-8° C. (48 h)): 101 % LS | % LS After Stress, Hold After Seeding ([4]; 5% SBECD w/v, 2-8° C. (48 h)): 80 % LS | % LS After Stress, Hold ([4]; 5% SBECD w/v, RT (48 h)): 101 % LS | % LS After Stress, Hold After Seeding ([4]; 5% SBECD w/v, RT (48 h)): 68 % LS | % LS After Stress, Freeze-thaw (3x) ([4]; 5% SBECD w/v, after seeding): 69 % LS | % LS After Stress, Freeze-thaw (3x) ([4]; 5% SBECD w/v, without seeding): 101 % LS | % LS (Initial) ([4]; 7.5% SBECD w/v): 101 % LS | % LS After Stress, Hold [4, 5]: 104* % LS | % LS After Stress, Hold After Seeding [4, 5]: 103* % LS | % LS After Stress, Hold [4, 6]: 103* % LS | % LS After Stress, Hold After Seeding [4, 6]: 102* % LS | % LS After Stress, Freeze-thaw (3x) ([4]; 7.5% SBECD w/v, after seeding): 97 % LS | % LS After Stress, Freeze-thaw (3x) ([4]; 7.5% SBECD w/v, without seeding): 99 % LS | % LS (Initial) ([4]; 10% SBECD w/v): 101 % LS | % LS After Stress, Hold ([4]; 10% SBECD w/v, 2-8° C. (48 h)): 101 % LS | % LS After Stress, Hold After Seeding ([4]; 10% SBECD w/v, 2-8° C. (48 h)): 99 % LS | % LS After Stress, Hold ([4]; 10% SBECD w/v, RT (48 h)): 101 % LS | % LS After Stress, Hold After Seeding ([4]; 10% SBECD w/v, RT (48 h)): 98 % LS | % LS After Stress, Freeze-thaw (3x) ([4]; 10% SBECD w/v, after seeding): 98 % LS | % LS After Stress, Freeze-thaw (3x) ([4]; 10% SBECD w/v, without seeding): 100 % LS | % LS (Initial) ([4]; 20% SBECD w/v): 102 % LS | % LS After Stress, Hold ([4]; 20% SBECD w/v, 2-8° C. (48 h)): 101 % LS | % LS After Stress, Hold After Seeding ([4]; 20% SBECD w/v, 2-8° C. (48 h)): 101 % LS | % LS After Stress, Hold ([4]; 20% SBECD w/v, RT (48 h)): 101 % LS | % LS After Stress, Hold After Seeding ([4]; 20% SBECD w/v, RT (48 h)): 101 % LS | % LS After Stress, Freeze-thaw (3x) ([4]; 20% SBECD w/v, after seeding): 100 % LS | % LS After Stress, Freeze-thaw (3x) ([4]; 20% SBECD w/v, without seeding): 100 % LS
